Laboratory results taken from US20190276376A1, “CAPSULES COMPRISING BENZYLPROPARGYLETHERS FOR USE AS NITRIFICATION INHIBITORS” (BASF SE, priority 2016, published 2019).

What was measured:
[1] = Vapor pressure by thermogravimetry; assay type: physicochemical; details: at 20° C.; Mettler Toledo STAR thermogravimeter
Method: The vapor pressure can be determined by thermogravimetry by methods known in the art. In the context of the present invention, a Mettler Toledo STAR thermogravimeter with 5 mg sample on a glass plate may be used. As a reference compound, 3,4-dimethyl pyrazole (DMP) was inter alia measured and a vapor pressure of 3.7 Pa at 20° C. was determined.

N2O emissions = N2O emissions from potted lettuce in greenhouse soil, gas chamber sampling, GC-ECD; assay type: in vivo, Green head lettuce; details: total cumulated N2O emissions, % inhibition compared to control; greenhouse 20° C., 60% humidity
Method: Green head lettuce was seeded in seedling boxes. Once the 4 leaf stage was reached one plant was potted into a 8 cm pot in standard greenhouse soil (mixture of peat, loam and sand) and grown in the greenhouse at 20° C. and 60% humidity. One week after planting the plants, the pots were separated out and each pot set onto a plant saucer designed with an inner compartment for the pot and an outer ring that is filled with water. At time 0, water with or without various concentrations of fertilizer and with either empty formulation or formulated capsule suspensions was applied to the plant such that the water holding capacity of the soil was around 50%. Then a gas sampling chamber was placed over the plant saucer such that the rim fit into the ring filled with water to create a gas-tight chamber and 20 cc air from the chamber were drawn into a syringe and immediately emptied in to a Vacutainer (Labco, 12 ml volume). This equals the Time Zero measurement for each pot. The same procedure was performed with all pots in the experiment. After incubation time of 1 h, again 20 cc air samples were taken from the gas chambers and emptied into Vacutainers as described above. […]
Samples were analyzed in a Shimadzu 2014 GC equipped with an ECD system. Total cumulated N2O emissions were calculated and related by calculating the % inhibition compared to control.

vapor pressure [1] [Pa] | Compound | Inhibition (%) N2O emissions (N2O emissions) [%]
3.7 | Cc1cn[nH]c1C [3,4-dimethyl pyrazole (DMP), 3,4-dimethyl pyrazole] | 
 | C#CCOCc1ccc(Cl)cc1 [Example A-10] | 25
